Read-outs that look alike come from different tables or passages of the source.
Key:
CYP2C19 = target: T1, CYP2C19 (Homo sapiens, UniProt P33261); experiment: CYP enzyme inhibition assay, CYP2C19; type: in vitro ADME; conditions: human liver microsomes
T1 construct: An incubation system of human liver microsomes (20 μL, 1.5 mg/mL); from tissue; host or cells: human liver microsomes
Method: An incubation system of human liver microsomes (20 μL, 1.5 mg/mL), 20 μL probe substrates, and 50 μL test compound in Tris (0.1 mol/L) was pre-incubated at 37 °C for 10 min, and then initiated by adding NADPH (10 μL, 10 mmol/L). […] Finally, the sample was centrifugated to obtain the supernatant for LC‒MS/MS analysis.

PK study in SD rats = type: in vivo; conditions: male, Sprague-Dawley, plasma, SD rat; for half-life: mean ± SD, n = 3; for MRT last: read-out: MRT0–t; for MRT inf: read-out: MRT0–∞
Method: All animal treatments were conducted using an approved protocol of Fudan University (2020CHEM-JS-009). A12 was dissolved in a mixture of DMSO/Solutol HS 15/normal saline (10/10/80, v/v/v). Six Sprague–Dawley rats (male, 180−220 g) were assigned into two groups (n = 3) randomly to receive i.v. (1 mg/kg) or p.o. administration (10 mg/kg) of A12. At the time points of 5, 15, 30 min, 1, 2, 4, 6, 8, 10, 12, and 24 h, blood samples were collected and centrifuged (4 °C, 4500 rpm, 10 min) to obtain plasma. Before LC‒MS/MS analysis, the plasma needs to be stored at −80 °C. Subsequently, 120 μL of MeCN containing internal standard was added to 30 μL of plasma. The mixture was shaken and centrifuged (4 °C, 10,000 rpm, 15 min) to afford the supernatant layer for LC‒MS/MS analysis. Finally, The WinNolin software was applied to calculate the pharmacokinetic parameters.

T1 sequence (P33261 whole entry): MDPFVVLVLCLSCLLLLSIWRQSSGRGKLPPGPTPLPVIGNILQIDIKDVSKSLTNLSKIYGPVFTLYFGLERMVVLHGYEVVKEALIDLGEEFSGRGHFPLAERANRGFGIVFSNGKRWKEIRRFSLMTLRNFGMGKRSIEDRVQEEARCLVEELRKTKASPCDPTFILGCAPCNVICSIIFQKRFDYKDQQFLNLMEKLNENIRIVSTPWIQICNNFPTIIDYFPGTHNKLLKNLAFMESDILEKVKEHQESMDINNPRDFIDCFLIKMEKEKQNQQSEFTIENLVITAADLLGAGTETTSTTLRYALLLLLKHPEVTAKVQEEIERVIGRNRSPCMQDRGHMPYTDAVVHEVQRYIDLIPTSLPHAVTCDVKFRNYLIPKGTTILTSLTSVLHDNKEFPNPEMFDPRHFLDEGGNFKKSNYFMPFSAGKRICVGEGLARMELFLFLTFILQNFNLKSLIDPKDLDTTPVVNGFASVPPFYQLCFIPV

Cc1cc(-c2ccc(C#N)cc2)cc(C)c1Nc1nc(Nc2ccc(C#N)cc2)ncc1F [A12, 4′-((2-((4-Cyanophenyl)amino)-5-fluoropyrimidin-4-yl)amino)-3′,5′-dimethyl-[1,1′-biphenyl]-4-carbonitrile]
IC50 (CYP2C19): 14.5 µM
AUC(0-inf) (PK study in SD rats; iv, 1.0 mg/kg i.v.): 3060 ± 139 ng·h/mL
AUC(0-t) (PK study in SD rats; iv, 1.0 mg/kg i.v.): 3000 ± 142 ng·h/mL
Cmax (PK study in SD rats; iv, 1.0 mg/kg i.v.): 2350 ± 178 ng/mL
Tmax (PK study in SD rats; iv, 1.0 mg/kg i.v.): 0.0833 h
half-life (PK study in SD rats; iv, 1.0 mg/kg i.v.): 5.53 ± 2.04 h
MRT last (PK study in SD rats; iv, 1.0 mg/kg i.v.): 3.25 ± 0.575 h
MRT inf (PK study in SD rats; iv, 1.0 mg/kg i.v.): 3.89 ± 1.03 h
bioavailability (PK study in SD rats; oral, 10.0 mg/kg p.o. vs 1.0 mg/kg i.v., read-out: F (oral bioavailability)): 29.2 ± 6%
AUC(0-inf) (PK study in SD rats; po, 10.0 mg/kg p.o.): 8930 ± 1850 ng·h/mL
AUC(0-t) (PK study in SD rats; po, 10.0 mg/kg p.o.): 7340 ± 1890 ng·h/mL
Cmax (PK study in SD rats; po, 10.0 mg/kg p.o.): 1390 ± 422 ng/mL
Tmax (PK study in SD rats; po, 10.0 mg/kg p.o.): 1 h
half-life (PK study in SD rats; po, 10.0 mg/kg p.o.): 13.6 ± 6.64 h
MRT last (PK study in SD rats; po, 10.0 mg/kg p.o.): 6.18 ± 0.306 h
MRT inf (PK study in SD rats; po, 10.0 mg/kg p.o.): 13.5 ± 6.49 h

Reference: article PMC12399242 (Acta Pharmaceutica Sinica. B, 2025)
